This is an account of results in patent publication US20070077316A1, “Compositions and methods for treating and preventing virus infections” (priority 2005, published 2007).

For series [1], the system named is HXB II standard virus strain of HIV. In words: HIV-1 replication in MT-2 cells scored by p24 antigen production. The class given is cell-based. The source says:
(§1) The MT-2 cell line, which cells are retrovirus transformed, was used. Virus applied to the MT-2 cells was the HXB II standard virus strain of HIV, isolated early in the 1980's (HIV Research Community Standard Reference Gene Sequence Data Base No. 135829). […] The main characteristic of the HXBII virus strain was to induce syncytia (SI) in certain cells such as MT-2 cells. This permitted assessment of the production of HIV by light microscopy, and thus, by titration of supernatant, the amount of infectious virus. Virus replication was determined as follows. Antiviral activity was assessed at day four or five after infection by scoring p24 antigen production by a commercial kit (DuPont) and by titration of the supernatants. Each well of each concentration of compound was titrated in a fourfold assay. MT-2 cells (4×10^5 per well) were added to all titration steps. After incubation, 100 μl of supplemented RPMI 1640 was added. After 5 d, all wells were scored for SI formation by light microscopy. The highest dilution (titer) displaying at least one SI were scored as positive, and the highest titers were averaged. […] Both MT-2 cell and PBM cell supernatants were titered on MT-2 cells. Testing the antiviral potency of various compositions was accomplished as follows. EGCg and EC were from Sigma (St. Louis, Mo.). Stock solutions of 100 mM were prepared in ethanol and serially diluted with water between 10^−3 molar and 10^−9 molar. […] Each experiment was in a fourfold assay.

Series [2] has the same test system. Put plainly: HIV-1 replication in MT-2 cells scored by titration of supernatants (syncytia). The class given is cell-based.
From the text: as §1

The test system of another series is MT-2 cells. In words: Toxicity to non-infected MT-2 cells by MTT utilization. It is filed as cell-based, human. The procedure:
After 5 days, 20 μl of MTT stock solution (7.5 mg/ml) was added. […] Subsequently, 100 μl of 10% v/v Triton X100 in acidified isopropanol was added, and absorbance was determined at 550 nm with reference at 630 nm. The cytotoxic effect of EGCg was reflected by a decrease of the cell viability of mock infected cells in the presence of EGCg in comparison to mock infected cells without EGCg (OD 492 nm) was lower than the value of mock infected cells without EGCg. The cytotoxicity values are given as negative values. Positive values are recorded for a stimulatory effect on cell viability and/or an increase in cell proliferation. Testing the antiviral potency of various compositions was accomplished as follows. EGCg and EC were from Sigma (St. Louis, Mo.). Stock solutions of 100 mM were prepared in ethanol and serially diluted with water between 10^−3 molar and 10^−9 molar. […] Each experiment was in a fourfold assay.

The test system of series [3] is human peripheral blood lymphocytes. Put plainly: Viability of human peripheral blood lymphocytes. It is filed as cell-based. To be noted: data not shown.
For the next series, the system named is HIV. Put plainly: Infectivity of HIV in MT-2 cells or PBMCs at different control virus titers. It is filed as cell-based.
The subject of the next series is human rhinovirus HRV 14. In words: HRV-HeLa test system: cytopathic effect of human rhinovirus in HeLa cells. It is filed as cell-based. Conditions: HRV 14, HeLa, XTT test 72 h post infection; read-out: EC50 inhibition of CPE. (Cytopathic effects are the visible damage that an infection or toxin causes in cultured cells.)
The test system of the next series is HRV14. Put plainly: HRV14-induced CPE in less sensitive (Berlin) HeLa strain, XTT test. The class given is cell-based, human rhinovirus. To be noted: for EC50: read-out: EC50 to prevent a cytopathic effect. The procedure:
Inhibition by CapsiVirol-T of the HRV cytopathic effect and effects on cell viability were tested using a HeLa strain which is less sensitive to tNOX inhibitors than certain other HeLa cells (Institute for Infectious Medicine, Berlin, Germany) (FIG. 17). In these studies, both CapsiVirol-T and EGCg, the principal green tea catechin, were tested. […] The test substance-containing medium was removed and the cells were infected with viruses at a multiplicity of infection of 0.1. For controls, virus infections were in the absence of the test substance. Mock infections were in the presence and absence of the test substance. Cell viability was measured in the XTT test directly at the days post infection (d.p.i.) indicated (FIG. 17). […] The cytopathic effect induced by a virus was determined from a decrease of cell viability (=decrease of […] nm in comparison to the mock infected control in the absence of the test substance). […] Cell viability was measured with the XTT test. Virus inoculation in the presence of CapsiVirol-T (without FCS) was for 30 min. […] Cell viability was monitored using the XTT test after 1, 2, and 3 days p.i. A control was at 1.5 h p.i. (in the figure 0 d p.i.) (FIG. 18). High OD values represent living cells, and low OD values represent cell damage. This damage is either induced by HRV14 (=cytopathic effect/CPE) or a toxic effect of the compound in mock-infected cells.
Background: Tetrazolium assays rely on reduction of a dye to a coloured formazan, in cell work by metabolically active cells.

In the next series the test system is mock-infected HeLa cells. Put plainly: Toxicity (cell viability) in mock-infected HeLa cells, XTT test. The class given is cell-based, human. Conditions: at EC50 concentrations (0.1 μM and below). How it is done:
Inhibition by CapsiVirol-T of the HRV cytopathic effect and effects on cell viability were tested using a HeLa strain which is less sensitive to tNOX inhibitors than certain other HeLa cells (Institute for Infectious Medicine, Berlin, Germany) (FIG. 17). In these studies, both CapsiVirol-T and EGCg, the principal green tea catechin, were tested. […] The test substance-containing medium was removed and the cells were infected with viruses at a multiplicity of infection of 0.1. For controls, virus infections were in the absence of the test substance. Mock infections were in the presence and absence of the test substance. Cell viability was measured in the XTT test directly at the days post infection (d.p.i.) indicated (FIG. 17). […] The cytopathic effect induced by a virus was determined from a decrease of cell viability (=decrease of […] nm in comparison to the mock infected control in the absence of the test substance). Cell viability was monitored using the XTT test after 1, 2, and 3 days p.i. A control was at 1.5 h p.i. (in the figure 0 d p.i.) (FIG. 18). High OD values represent living cells, and low OD values represent cell damage. This damage is either induced by HRV14 (=cytopathic effect/CPE) or a toxic effect of the compound in mock-infected cells.

A further series has as its system Herpes simplex virus 1. It is filed as cell-based. To be noted: HeLa cells.
For series [4], the system named is TMEV/GDVII virus, TMEV/Bean virus. It is filed as cell-based, Theiler's murine encephalomyelitis virus. To be noted: RAW macrophages.
The next series has as its system HRV14-induced vNOX. Put plainly: Spectrophotometric vNOX activity assay (NADH oxidation) with HRV-infected MCF-10A cells. To be noted: read-out: EC50 inhibition of vNOX.

Read-outs that look alike come from different tables or passages of the source.

As for `O=C(O[C@@H]1Cc2c(O)cc(O)cc2O[C@@H]1c1cc(O)c(O)c(O)c1)c1cc(O)c(O)c(O)c1` [EGCg, (−)-epigallocatechin-3-gallate], the “effect on p24 production” value in series [1] (1 nM) is given as “no effect”. In [1] (10^−4 M, 4 or 5 d), the “inhibition of virus production (p24) as compared to the virus control” value came out at 93%. The “inhibition of virus replication (p24)” value in [1] (10^−5 M, 4 or 5 d) came out at 45%. In addition, the “inhibitory effect (p24)” value in [1] (10^−6 and 10^−7 M) was “approximately 20%”. In addition, the reduction of titers entry in [2] (1 nM) is reported as “no reduction”; in [2] (10^−6 and 10^−7 M), “approximately 50%”; in series [2] (10^−8 M), 40%. Moreover, in series [2] (10^−5 M), the “titrated virus, % of the virus control or EC control” value is 20%. Moreover, the “reduction of MTT utilization” value with MT-2 cells (10^−4 M) worked out at 90%. Also, in the series on MT-2 cells (dilutions of less than 10^−5 M), the “cytotoxic effects by MTT utilization” value is “no cytotoxic effects”. In addition, the effect on viability result in [3] was “without effect”. In addition, the “infectivity (syncytia reassay)” value in the series with HIV (1 μM) was “almost entirely prevented”. In addition, the EC50 with HIV (control virus production of 14,000 infective particles/ml, read-out: EC50 reducing infectivity of HIV) was ~1000 nM; with HIV (control virus production of 40,000 infective particles/ml, read-out: EC50 reducing infectivity of HIV) it was ~10000 nM; in the series on HIV (read-out: EC50 for prevention of infection (day 4 supernatants reassayed on MT-2 cells, syncytia after 5 days)), ~100 nM; in the series with human rhinovirus HRV 14 it was ~1000 nM; with HRV14 (day 1), < 100 nM; in the series on HRV14 (day 2), 100 nM. In addition, the concentration for a half-maximal effect (EC50) in the series with HRV14-induced vNOX stood at 10 nM. The “fold higher concentration compared to CapsiVirol-T required to achieve inhibition” value in the series with HRV14 is given as ≥ 10 fold. Moreover, the toxicity entry with mock-infected HeLa cells is on record as “not toxic”. The infection result (in the series with Herpes simplex virus 1; in series [4]) was “prevented” in each case.

The EC50 is the midpoint of the concentration-response curve.
